From US20180193294A1, “Dehydroabietic acid (DHAA) derivatives for use as ion channel openers” (priority 2015, published 2018)

What was measured:
[1] = target: 3R Shaker K channel (Drosophila melanogaster, UniProt P08510, A359R/M356R); assay: physchem; type: cell-based; conditions: Table 1; 100 μM, pH 7.4, Xenopus oocytes
Procedure, shortened: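 Two-electrode voltage clamp at 20-23° C. in oocytes (also CHO-K1 stable line, manual patch clamp) expressing Shaker H4 lacking N-type inactivation; 1K extracellular solution, pH 7.4, holding −80 mV, 100-ms 5-mV steps up to +70 mV. Compound-induced G(V) shift taken at 10% of control Gmax (oocytes) or as V1/2 difference (CHO-K1).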

[2] = system: dorsal root ganglion (DRG) neurons; assay: Resting membrane potential of DRG neurons, whole-cell current clamp; type: cell-based, mice; conditions: 10 μM, pH 7.4, 120 s application
Method: All animal experiments were approved by the local Animal Care and Use Committee and followed international guidelines. Five female 7-12 week-old C57BL/6 mice (Scanbur) were used for this study. The mice were anaesthetized with isoflurane and decapitated. Dorsal root ganglia (DRG) were dissected from all spinal levels and enzymatically digested with collagenase (250 CDU/ml) for 15 min, and then trypsin (1 mg/ml) was added for another 30 min. The ganglia were centrifuged and resuspended in Leibovitz L-15 media with glutamine, supplemented with 10% fetal calf serum, 38 mM glucose, 24 mM NaHCO3 and penicillin/streptomycin. The ganglia were triturated and the DRG neurons plated on poly-D-lysine coated plastic coverslips. The neurons were cultured at 37° C. with 5% CO2 for 2-3 days before the electrophysiological recordings.
All manual electrophysiological recordings were performed at room temperature (20-23° C.), using a GeneClamp 500B amplifier (for oocytes) or a Axopatch 200B amplifier (for manual patch clamp of CHO—K1 cells and DRG neurons) and a Digidata 1440A digitizer and pClamp 10 software (all from Molecular Devices, Inc., Sunnyvale, Calif., USA). Compounds were dissolved to 100 mM in 99.5% EtOH and stored at −20° C. Compounds were diluted in extracellular solution to the desired test concentration.
CHO—K1 Cells were plated on coverslips 2 h before the manual electrophysiological recordings. Coverslips with CHO—K1 cells or DRG neurons were placed in a recording chamber and perfused with extracellular solution by a gravity-fed perfusion system. Substances were applied by a pressurized, automated OctaFlow perfusion system (ALA Scientific Instruments). The signals were sampled at 5-20 kHz after low-pass filtering at 2-5 kHz. For CHO—K1 cells the intracellular solution contained (in mM): 120 K-gluconate, 10 KCl, 5 EGTA, 10 HEPES, 4 Mg-ATP, 0.3 Na-GTP, pH 7.3; the extracellular solution contained (in mM): 135 NaCl, 4 KCl, 10 HEPES, 1 MgCl2, 1.8 CaCl2, 10 glucose, pH 7.4. Currents were evoked in CHO—K1 cells in whole-cell voltage-clamp mode from a holding potential of −80 mV by 100-ms long, 10-mV steps ranging from −80 to +80 mV.
For DRG neurons the intracellular solution contained (in mM): 120 K-gluconate, 10 KCl, 1 EGTA, 10 HEPES, 4 Mg-ATP, 0.3 Na-GTP, pH 7.3; the extracellular solution contained (in mM): 144 NaCl, 2.5 KCl, 10 HEPES, 0.5 MgCl2, 2 CaCl2, 10 glucose, pH 7.4. A liquid-junction potential of approximately −14 mV was corrected for. […] Small and medium sized DRG neurons were selected for whole-cell current-clamp recording. 10 μM of the compounds were applied for 120 s to study the effect on the resting membrane potential, and for 45-120 s to study the effects on evoked action potentials. To evoke action potentials 800-ms depolarizing pulses
The compound effect on the resting membrane potential Vm was determined by subtracting the control pre-compound Vm from the Vm at the end of the 120 s application of test compound.

3R Shaker K channel, sequence (P08510 whole entry M356R/A359R): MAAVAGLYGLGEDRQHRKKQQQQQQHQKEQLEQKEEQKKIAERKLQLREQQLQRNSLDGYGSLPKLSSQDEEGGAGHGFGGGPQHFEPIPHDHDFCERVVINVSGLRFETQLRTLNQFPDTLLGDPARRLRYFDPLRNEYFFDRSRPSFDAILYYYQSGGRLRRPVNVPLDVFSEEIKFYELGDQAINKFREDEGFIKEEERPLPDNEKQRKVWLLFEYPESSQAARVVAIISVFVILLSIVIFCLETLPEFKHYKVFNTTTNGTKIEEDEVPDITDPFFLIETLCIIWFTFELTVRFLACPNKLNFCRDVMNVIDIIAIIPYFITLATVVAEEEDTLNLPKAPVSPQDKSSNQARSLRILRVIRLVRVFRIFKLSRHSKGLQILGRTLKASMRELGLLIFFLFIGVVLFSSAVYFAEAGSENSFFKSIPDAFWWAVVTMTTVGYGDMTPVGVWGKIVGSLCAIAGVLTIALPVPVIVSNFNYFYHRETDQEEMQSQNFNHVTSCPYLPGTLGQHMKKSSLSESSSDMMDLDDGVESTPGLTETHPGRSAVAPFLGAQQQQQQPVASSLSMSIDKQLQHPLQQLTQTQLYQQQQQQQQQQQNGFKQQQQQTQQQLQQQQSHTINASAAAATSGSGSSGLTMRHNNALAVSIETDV

SMILES	G(V) shift [1] [mV]	shift of the resting membrane potential (ΔVm) [2]
CC(C)c1cc2c(cc1Cl)[C@@]1(C)CCC[C@@](C)(C(=O)O)C1CC2 (stereo partly drawn) [Wu13, (1R,4aS)-6-chloro-7-isopropyl-1,4a-dimethyl-1,2,3,4,4a,9,10,10a-octahydrophenanthrene-1-carboxylic acid]	−15.8	most potent compounds on the DRG neurons
C=CCO/N=C1\CC2[C@](C)(C(=O)O)CCC[C@]2(C)c2cc(Cl)c(C(C)C)cc21 (stereo partly drawn) [Wu23, (1R,4aS,E)-9-((allyloxy)imino)-6-chloro-7-isopropyl-1,4a-dimethyl-1,2,3,4,4a,9,10,10a-octahydrophenanthrene-1-carboxylic acid]	−26.7	intermediately potent hyperpolarizers
CO/N=C1\CC2[C@](C)(C(=O)O)CCC[C@]2(C)c2ccc(C(C)C)c(Br)c21 (stereo partly drawn) [Wu74, (1R,4aS,E)-8-bromo-7-isopropyl-9-(methoxyimino)-1,4a-dimethyl-1,2,3,4,4a,9,10,10a-octahydrophenanthrene-1-carboxylic acid]	−14.7	intermediately potent hyperpolarizers
